Assay results as given in patent publication US11414385B2, “Compounds and methods for treating, detecting, and identifying compounds to treat apicomplexan parasitic diseases” (The University of Chicago, priority 2015, dated 2022).
≈ marks a conversion by molar mass, not a printed value.

Key:
bovine cytochrome bc = biological target: T1, bovine cytochrome bc (Bos taurus, UniProt P00157); experiment: Binding assays with bovine cytochrome bc1
T1 construct: Whole bovine heart was collected directly from slaughter and transported on ice to the cold room; from tissue; host or cells: bovine heart mitochondria, DDM-solubilised, column-purified

[1] = Aqueous kinetic solubility pH 7.4; assay type: physicochemical; settings: for solubility kinetic: PBS pH 7.4
[2] = system: P. berghei sporozoites, blood and liver stages; experiment: P. berghei sporozoite causal prophylaxis model in mice; assay type: in vivo, Plasmodium berghei
Method: P. berghei sporozoites. The methods that follow are taken directly from^24,25: From laboratory-reared female Anopheles stephensi, isolation, inoculation and viability check Plasmodium berghei sporozoites (luciferase expressing) were obtained and maintained at 18° C. for 17 to 22 days after feeding on malaria-infected Swiss CD-1/ICR mice. From malaria-infected mosquitoes, salivary glands were extracted and sporozoites obtained. Briefly, mosquitoes were separated into head/thorax and abdomen. Thoraxes and heads were triturated with a mortar and pestle and suspended in medium RPMI 1640 containing 1% C57BL/6 mouse serum (Rockland Co, Gilbertsville, Pa., USA). 50-80 heads with glands total were placed into a 0.5 ml Osaki tube on top of glass wool with enough dissection media to cover the heads. Until all mosquitoes had been dissected, the Osaki tube was kept on ice. Sporozoites that were isolated from the same batch of mosquitoes were inoculated into C57BL/6, 2D knock-out and 2D knock-out/2D6 knock-in C57BL/6 mice on the same day to control for biological variability in sporozoite preparations. On day 0, each mouse was inoculated intravenously in the tail vein with approximately 10,000 sporozoites suspended in 0.1 ml volume. They were stained with a vital dye containing fluorescein diacetate (50 mg/ml in acetone) and ethidium bromide (20 μg/ml in phosphate buffered saline; Sigma Chemical Co, St. Louis, Mo., USA) and counted in a haemocytometer to ensure that inoculated sporozoites were viable following the isolation procedure. Viability of the sporozoites ranged from 90 to 100%.
At the time of preparation of the suspension solution, compounds tested in these experiments were dosed based on the body weight. The suspension solution of oral agents, using homogenizer (PRO Scientific Inc, Monroe, Conn., USA) with 10 mm open-slotted generator to homogenize drug powder mixture at 20,000-22,000 rpm for 5 min in ice bath, were prepared in 0.5% (w/v) hydroxyethyl cellulose and 0.2% (0.5% HECT, v/v) Tween-80 in distilled water. […]
All of the in vivo imaging system (IVIS) methods utilized have been described previously. […] Additionally, using a flow cytometry system (FC500 MPL, Beckman Coulter, Miami, Fla., USA), blood-stage infections were measured. […] D-Luciferin potassium salt, (Xenogen, California and Goldbio, St Louis, Mo., USA), the luciferase substrate, was inoculated intraperitoneally into mice at a concentration of 200 mg/kg 15 min before luminescence analysis. […] Using Living Image® 3.0 software, photons emitted from specific regions were quantified.
Parasitemia was measured after days of IVIS imaging. During a total of 30 days, mice were observed and parasitemia level determined using FACs analysis. […]

HEP G2 = experiment: IC50 with HEP G cells (toxicity); assay type: cell-based, human; settings: not toxic
in vitro = in vitro ADME; settings: dog, MDCK-MDR1
hERG = hERG (Homo sapiens, UniProt Q12809); experiment: hERG profile
P. falciparum Dd2 = experiment: SYBR Green drug sensitivity of Dd2 and cytochrome b / scDHODH lines; assay type: cell-based, Plasmodium falciparum
Method: We used the following parasite line from the MR4 repository of the American Type Culture Collection (ATCC): Dd2 (MRA-156). Mutant Dd2 parasites harboring a G33A or G33V substitution in cytochrome b were as reported. Dd2 parasites with a G131 S mutation in cytochrome b and transgenic lines expressing a chromosomally integrated copy of the S. cerevisiae DHODH were utilized as previously described. Parasites were cultured by standard methods in RPMI media supplemented with 5% human O^+ serum and 0.25% AlbuMAX® II (Life Technologies 11021-045).
Drug susceptibility was measured using the SYBR Green method. Twelve point curves based on 2-fold dilutions of the test compound were carried out in triplicate each day and replicated on at least three different days. EC50 values were calculated using a nonlinear regression curve fit in Prism 6.0 for Mac (GraphPad Software, Inc.).

FaSSIF solubility pH 6.5 = assay type: physicochemical
[3] = system: T. gondii Me49 strain cysts; experiment: Established brain cysts in mice (chronic infection); assay type: in vivo, Toxoplasma gondii; settings: cysts established >2 months earlier, 12.5-25 mg/kg for 17 days
Method: The ability of compounds to reduce cyst burden and prevent encephalitis induced by the Type II strain of T. gondii were tested. Encephalitis was assessed by histological analyses and parasite burdens evaluated by quantitation of cysts.
The oocyst challenge model is ideal for this study because oocysts can be diluted at one time and stored at 4° C. for 12 months without loss of infectivity titer. For treatment of chronic infection there were 5 to 10 mice per group treated 2 months after infection was established by compound in DMSO for parenteral administration administered once per day. Treatment was for 17 days.

[4] = PBS, pH 7.4, aqueous buffer, kinetic from dmso stock
[5] = P. berghei, 0.625 mg/kg x3 or 2.5 mg/kg single oral dose

Chain of hERG (Q12809 whole entry): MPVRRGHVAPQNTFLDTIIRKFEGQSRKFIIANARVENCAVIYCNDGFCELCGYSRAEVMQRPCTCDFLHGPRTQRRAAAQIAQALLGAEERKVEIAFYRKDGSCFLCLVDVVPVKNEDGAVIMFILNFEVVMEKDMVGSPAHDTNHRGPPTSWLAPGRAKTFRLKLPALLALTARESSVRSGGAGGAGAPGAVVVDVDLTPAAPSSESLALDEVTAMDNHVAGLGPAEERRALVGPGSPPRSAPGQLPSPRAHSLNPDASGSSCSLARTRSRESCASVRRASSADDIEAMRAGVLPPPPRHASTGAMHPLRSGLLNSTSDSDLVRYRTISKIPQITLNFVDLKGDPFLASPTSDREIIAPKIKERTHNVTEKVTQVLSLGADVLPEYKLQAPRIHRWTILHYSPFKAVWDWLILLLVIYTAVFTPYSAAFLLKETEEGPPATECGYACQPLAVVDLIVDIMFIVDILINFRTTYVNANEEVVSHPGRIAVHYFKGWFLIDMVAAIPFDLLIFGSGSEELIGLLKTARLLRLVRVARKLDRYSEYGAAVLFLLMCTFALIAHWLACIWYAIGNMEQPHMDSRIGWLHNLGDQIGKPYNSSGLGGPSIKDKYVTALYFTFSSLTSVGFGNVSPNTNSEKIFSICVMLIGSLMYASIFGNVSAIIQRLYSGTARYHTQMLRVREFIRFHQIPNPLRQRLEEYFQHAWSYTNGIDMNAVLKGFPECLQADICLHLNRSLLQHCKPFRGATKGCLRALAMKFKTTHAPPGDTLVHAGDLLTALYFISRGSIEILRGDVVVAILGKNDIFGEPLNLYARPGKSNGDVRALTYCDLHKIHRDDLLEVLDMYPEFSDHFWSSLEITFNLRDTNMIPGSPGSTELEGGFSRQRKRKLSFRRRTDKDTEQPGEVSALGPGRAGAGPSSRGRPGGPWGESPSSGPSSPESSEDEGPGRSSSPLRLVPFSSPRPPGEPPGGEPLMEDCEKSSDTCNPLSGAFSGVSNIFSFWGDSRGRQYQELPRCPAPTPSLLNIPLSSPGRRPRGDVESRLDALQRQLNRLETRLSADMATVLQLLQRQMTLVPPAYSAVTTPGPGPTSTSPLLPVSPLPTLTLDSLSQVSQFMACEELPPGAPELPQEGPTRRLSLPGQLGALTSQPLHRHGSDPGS

| SMILES | inhibition of bovine Cytbc1 (bovine cytochrome bc) | binding affinity to bovine cytochrome bc (bovine cytochrome bc; in comparison with previous compounds) | solubility kinetic [1, 4] [µM] | P. berghei cure, 3 oral doses ([2]; 3 oral doses (days -1, 0, +1), 0.625 mg/kg) | parasitemia [2, 5] | survival at 30 days [2, 5] [%] | P. berghei cure, single oral dose ([2]; single dose 2.5 mg/kg, oral, 2.5 mg/kg) | toxicity to human HepG cells (HEP G2) [µM] | Papp A→B (in vitro) [×10⁻⁶ cm/s] | hERG profile (hERG) | cross-resistance in cytochrome b drug-resistant mutant lines (P. falciparum Dd2; Dd2 G33A and Dd2 G33V) | EC50 (P. falciparum Dd2; Plasmodium falciparum, DD2) [nM] | inhibition of parasite supplemented with yeast cytosolic DHODH (P. falciparum Dd2; scDHODH line) | solubility (FaSSIF solubility pH 6.5; FaSSIF, pH 6.5, fassif) [µM] | improved FaSSIF/FeSSIF (pH 6.5) solubility (FaSSIF solubility pH 6.5; relative to ELQ 271) [fold] | solubility kinetic [1] [µM] | solubility ([1]; aqueous buffer, kinetic from dmso stock, 100 mM Phosphate Buffer (pH 7.4)) [µM] | improved aqueous kinetic solubility (pH 7.4) over ELQ 271 ([1]; relative to ELQ 271) [fold] | effect on numbers of Me49 strain cysts in mice [3] | effect on numbers of Me49 strain cysts in mice ([3]; listed as MJM 170) |
| --- | --- | --- | --- | --- | --- | --- | --- | --- | --- | --- | --- | --- | --- | --- | --- | --- | --- | --- | --- | --- |
| Cc1[nH]c2c(c(=O)c1-c1ccc(Oc3ccc(OC(F)(F)F)cc3)cc1)CCCC2 [JAG21, 2-methyl-3-(4-(4-(trifluoromethoxy)phenoxy)phenyl)-5,6,7,8-tetrahydroquinolin-4(1H)-one] | but not fully | lower binding affinity | 7 (≈ 2.91 µg/mL) | protect and cure | no parasitemia | 100 | cures and cure | > 17 | > 10 | clean | – | – | – | – | – | – | – | – | – | – |
| Cc1[nH]c2c(c(=O)c1-c1ccc(Oc3ccccc3)cc1)CCCC2 [MJM170] | – | – | 2 (≈ 0.663 µg/mL) | – | – | – | – | – | 32.1 | – | without cross-resistance | 29.5 | cannot inhibit | 9.8 (≈ 3.25 µg/mL) | 3 | 1.97 (≈ 0.653 µg/mL) | 1.97 (≈ 0.653 µg/mL) | 10 | modestly reduced numbers | reduces cysts |
